In patent US12097241B2, “Methods of treating kidney failure, and/or improving or stablizing renal function using modified relaxin polypeptides” (BRISTOL-MYERS SQUIBB COMPANY, priority 2017, dated 2024):
pEC50: −log10 of the molar value. Where two headings read alike, the source gives them in different places.

Biological target: T1, human RXFP1 receptor (Homo sapiens, UniProt Q9HBX9)
T1 construct: expressed in transfected cells
T1 sequence (Q9HBX9 1-757): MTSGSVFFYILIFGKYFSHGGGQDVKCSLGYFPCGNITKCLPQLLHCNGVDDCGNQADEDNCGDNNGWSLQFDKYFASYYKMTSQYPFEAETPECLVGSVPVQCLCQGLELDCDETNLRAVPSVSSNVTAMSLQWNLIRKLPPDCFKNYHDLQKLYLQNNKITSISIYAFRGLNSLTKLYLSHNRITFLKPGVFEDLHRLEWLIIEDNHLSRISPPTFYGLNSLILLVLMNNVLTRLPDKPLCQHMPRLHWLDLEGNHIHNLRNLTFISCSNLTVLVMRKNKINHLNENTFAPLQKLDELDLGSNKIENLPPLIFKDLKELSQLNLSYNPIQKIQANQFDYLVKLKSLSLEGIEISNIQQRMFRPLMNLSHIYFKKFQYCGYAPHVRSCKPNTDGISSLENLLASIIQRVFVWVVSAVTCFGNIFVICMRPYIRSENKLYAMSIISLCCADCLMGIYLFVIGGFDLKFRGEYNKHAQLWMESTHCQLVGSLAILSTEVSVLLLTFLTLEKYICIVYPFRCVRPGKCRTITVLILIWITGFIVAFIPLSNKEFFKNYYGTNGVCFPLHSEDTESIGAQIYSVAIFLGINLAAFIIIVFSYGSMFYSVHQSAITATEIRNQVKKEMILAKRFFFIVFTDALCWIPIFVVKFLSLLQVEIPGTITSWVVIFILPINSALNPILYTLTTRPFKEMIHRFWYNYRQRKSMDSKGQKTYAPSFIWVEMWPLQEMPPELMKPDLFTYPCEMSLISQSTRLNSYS
Assay: Intracellular cAMP accumulation assay
Format: cell-based

SMILES | pEC50 | EC50 (CHO-K1 cells stably expressing human RXFP1, 10 min at 37° C., HTRF cAMP, average, read-out: hRXFP1/CHO-K1 cAMP EC50 (nM, avg))
CC[C@H](C)[C@@H]1NC(=O)[C@H](C)NC(=O)[C@H]([C@@H](C)CC)NC(=O)[C@H](CCC(N)=O)NC(=O)[C@H](C)NC(=O)[C@H](CCCNC(=N)N)NC(=O)[C@H](C(C)C)NC(=O)[C@H](CC(C)C)NC(=O)[C@H](CCC(=O)O)NC(=O)[C@H](CCCNC(=N)N)NC(=O)CNC(=O)[C@@H](NC(=O)[C@H](CC(C)C)NC(=O)[C@H](CCCCN)NC(=O)[C@@H](NC(=O)[C@@H](NC(=O)[C@H](CCC(=O)O)NC(=O)[C@H](CCC(=O)O)NC(=O)[C@H](CCSC)NC(=O)[C@H](Cc2c[nH]c3ccccc23)NC(=O)[C@H](CO)NC(=O)[C@H](C)N)C(C)C)[C@@H](C)CC)CSSC[C@@H]2NC(=O)[C@@H](NC(=O)[C@H](CCCCN)NC(=O)[C@H](CC(N)=O)NC(=O)[C@H](C)NC(=O)[C@H](CC(C)C)NC(=O)[C@H](C)NC(=O)[C@H](CO)NC(=O)[C@H](Cc3ccc(O)cc3)NC(=O)[C@H](CC(C)C)NC(=O)[C@@H](N)Cc3ccc(C(C)=NOCCNC(=O)[C@H](CCCCN)NC(=O)[C@H](CCCCN)NC(=O)[C@H](CO)NC(=O)CNC(=O)CNC(=O)[C@H](CO)NC(=O)CNC(=O)CNC(=O)[C@H](CCC(=O)O)NC(=O)CCCCCCCCCCCCC(=O)O)cc3)CSSC[C@H](NC(=O)CNC(=O)[C@H](C(C)C)NC(=O)[C@H](Cc3c[nH]cn3)NC2=O)C(=O)N[C@@H]([C@@H](C)O)C(=O)N[C@@H](CCCCN)C(=O)N[C@@H](CCCNC(=N)N)C(=O)N[C@@H](CO)C(=O)N[C@@H](CC(C)C)C(=O)N[C@@H](C)C(=O)N[C@@H](CCCNC(=N)N)C(=O)N[C@@H](Cc2ccccc2)C(=O)N[C@H](C(=O)O)CSSC[C@@H](C(=O)NCC(=O)N[C@@H](CCSC)C(=O)N[C@@H](CO)C(=O)N[C@H](C(=O)N[C@@H](Cc2c[nH]c3ccccc23)C(=O)N[C@@H](CO)C(=O)O)[C@@H](C)O)NC1=O [AQ1-KKSGGSGG-Glu^α-C13-COOH] | 9.57 | –
CC[C@H](C)[C@@H]1NC(=O)[C@H](C)NC(=O)[C@H]([C@@H](C)CC)NC(=O)[C@H](CCC(N)=O)NC(=O)[C@H](C)NC(=O)[C@H](CCCNC(=N)N)NC(=O)[C@H](C(C)C)NC(=O)[C@H](CC(C)C)NC(=O)[C@H](CCC(=O)O)NC(=O)[C@H](CCCNC(=N)N)NC(=O)CNC(=O)[C@@H](NC(=O)[C@H](CC(C)C)NC(=O)[C@H](CCCCN)NC(=O)[C@@H](NC(=O)[C@@H](NC(=O)[C@H](CCC(=O)O)NC(=O)[C@H](CCC(=O)O)NC(=O)[C@H](CCSC)NC(=O)[C@H](Cc2c[nH]c3ccccc23)NC(=O)[C@H](CO)NC(=O)[C@H](C)N)C(C)C)[C@@H](C)CC)CSSC[C@@H]2NC(=O)[C@@H](NC(=O)[C@H](CCCCN)NC(=O)[C@H](CC(N)=O)NC(=O)[C@H](C)NC(=O)[C@H](CC(C)C)NC(=O)[C@H](C)NC(=O)[C@H](CO)NC(=O)[C@H](Cc3ccc(O)cc3)NC(=O)[C@H](CC(C)C)NC(=O)[C@@H](N)Cc3ccc(C(C)=NOCCNC(=O)[C@H](CCCCN)NC(=O)[C@H](CCCCN)NC(=O)[C@H](CO)NC(=O)CNC(=O)CNC(=O)[C@H](CO)NC(=O)CNC(=O)CNC(=O)CC[C@H](NC(=O)CCCCCCCCCCCCC(=O)O)C(=O)O)cc3)CSSC[C@H](NC(=O)CNC(=O)[C@H](C(C)C)NC(=O)[C@H](Cc3c[nH]cn3)NC2=O)C(=O)N[C@@H]([C@@H](C)O)C(=O)N[C@@H](CCCCN)C(=O)N[C@@H](CCCNC(=N)N)C(=O)N[C@@H](CO)C(=O)N[C@@H](CC(C)C)C(=O)N[C@@H](C)C(=O)N[C@@H](CCCNC(=N)N)C(=O)N[C@@H](Cc2ccccc2)C(=O)N[C@H](C(=O)O)CSSC[C@@H](C(=O)NCC(=O)N[C@@H](CCSC)C(=O)N[C@@H](CO)C(=O)N[C@H](C(=O)N[C@@H](Cc2c[nH]c3ccccc23)C(=O)N[C@@H](CO)C(=O)O)[C@@H](C)O)NC1=O [AQ1-KKSGGSGG-Glu^γ-C13-COOH] | 9.47 | –
CC[C@H](C)[C@@H]1NC(=O)[C@H](C)NC(=O)[C@H]([C@@H](C)CC)NC(=O)[C@H](CCC(N)=O)NC(=O)[C@H](C)NC(=O)[C@H](CCCNC(=N)N)NC(=O)[C@H](C(C)C)NC(=O)[C@H](CC(C)C)NC(=O)[C@H](CCC(=O)O)NC(=O)[C@H](CCCNC(=N)N)NC(=O)CNC(=O)[C@@H](NC(=O)[C@H](CC(C)C)NC(=O)[C@H](CCCCN)NC(=O)[C@@H](NC(=O)[C@@H](NC(=O)[C@H](CCC(=O)O)NC(=O)[C@H](CCC(=O)O)NC(=O)[C@H](CCSC)NC(=O)[C@H](Cc2c[nH]c3ccccc23)NC(=O)[C@H](CO)NC(=O)[C@H](C)N)C(C)C)[C@@H](C)CC)CSSC[C@@H]2NC(=O)[C@@H](NC(=O)[C@H](CCCCN)NC(=O)[C@H](CC(N)=O)NC(=O)[C@H](C)NC(=O)[C@H](CC(C)C)NC(=O)[C@H](C)NC(=O)[C@H](CO)NC(=O)[C@H](Cc3ccc(O)cc3)NC(=O)[C@H](CC(C)C)NC(=O)[C@@H](N)Cc3ccc(/C(C)=N/OCCNC(=O)CN(C)C(=O)CN(C)C(=O)CN(C)C(=O)CN(C)C(=O)[C@H](CO)NC(=O)CC[C@H](NC(=O)CCCCCCCCCCCCC(=O)O)C(=O)O)cc3)CSSC[C@H](NC(=O)CNC(=O)[C@H](C(C)C)NC(=O)[C@H](Cc3c[nH]cn3)NC2=O)C(=O)N[C@@H]([C@@H](C)O)C(=O)N[C@@H](CCCCN)C(=O)N[C@@H](CCCNC(=N)N)C(=O)N[C@@H](CO)C(=O)N[C@@H](CC(C)C)C(=O)N[C@@H](C)C(=O)N[C@@H](CCCNC(=N)N)C(=O)N[C@@H](Cc2ccccc2)C(=O)N[C@H](C(=O)O)CSSC[C@@H](C(=O)NCC(=O)N[C@@H](CCSC)C(=O)N[C@@H](CO)C(=O)N[C@H](C(=O)N[C@@H](Cc2c[nH]c3ccccc23)C(=O)N[C@@H](CO)C(=O)O)[C@@H](C)O)NC1=O [AQ1-Sar-Sar-Sar-Sar-Ser-Glu^γ-C13-COOH] | – | 0.32 nM
CC[C@H](C)[C@@H]1NC(=O)[C@H](C)NC(=O)[C@H]([C@@H](C)CC)NC(=O)[C@H](CCC(N)=O)NC(=O)[C@H](C)NC(=O)[C@H](CCCNC(=N)N)NC(=O)[C@H](C(C)C)NC(=O)[C@H](CC(C)C)NC(=O)[C@H](CCC(=O)O)NC(=O)[C@H](CCCNC(=N)N)NC(=O)CNC(=O)[C@@H](NC(=O)[C@H](CC(C)C)NC(=O)[C@H](CCCCN)NC(=O)[C@@H](NC(=O)[C@@H](NC(=O)[C@H](CCC(=O)O)NC(=O)[C@H](CCC(=O)O)NC(=O)[C@H](CCSC)NC(=O)[C@H](Cc2c[nH]c3ccccc23)NC(=O)[C@H](CO)NC(=O)[C@H](C)N)C(C)C)[C@@H](C)CC)CSSC[C@@H]2NC(=O)[C@@H](NC(=O)[C@H](CCCCN)NC(=O)[C@H](CC(N)=O)NC(=O)[C@H](C)NC(=O)[C@H](CC(C)C)NC(=O)[C@H](C)NC(=O)[C@H](CO)NC(=O)[C@H](Cc3ccc(O)cc3)NC(=O)[C@H](CC(C)C)NC(=O)[C@@H](N)Cc3ccc(/C(C)=N/OCCNC(=O)CCC(=O)NCCCNCCCCNCCCNC(=O)CC[C@H](NC(=O)CCCCCCCCCCCCCC(=O)O)C(=O)O)cc3)CSSC[C@H](NC(=O)CNC(=O)[C@H](C(C)C)NC(=O)[C@H](Cc3c[nH]cn3)NC2=O)C(=O)N[C@@H]([C@@H](C)O)C(=O)N[C@@H](CCCCN)C(=O)N[C@@H](CCCNC(=N)N)C(=O)N[C@@H](CO)C(=O)N[C@@H](CC(C)C)C(=O)N[C@@H](C)C(=O)N[C@@H](CCCNC(=N)N)C(=O)N[C@@H](Cc2ccccc2)C(=O)N[C@H](C(=O)O)CSSC[C@@H](C(=O)NCC(=O)N[C@@H](CCSC)C(=O)N[C@@H](CO)C(=O)N[C@H](C(=O)N[C@@H](Cc2c[nH]c3ccccc23)C(=O)N[C@@H](CO)C(=O)O)[C@@H](C)O)NC1=O [AQ1-Spermine-Glu^γ-C14-COOH] | 9.41 | –
